Data: PMC7782499, “Progerinin, an optimized progerin-lamin A binding inhibitor, ameliorates premature senescence phenotypes of Hutchinson-Gilford progeria syndrome” (Communications Biology, 2021)
Where “and” joins values, the source holds several entries; their conditions need not be identical. Equal entries are not always repeated.

Assays:
Format in all cases: in vitro ADME
CYP1A2 = target: T1, CYP1A2 (Homo sapiens, UniProt P05177); experiment: CYP inhibition, CYP1A2
T1 sequence (P05177 1-516): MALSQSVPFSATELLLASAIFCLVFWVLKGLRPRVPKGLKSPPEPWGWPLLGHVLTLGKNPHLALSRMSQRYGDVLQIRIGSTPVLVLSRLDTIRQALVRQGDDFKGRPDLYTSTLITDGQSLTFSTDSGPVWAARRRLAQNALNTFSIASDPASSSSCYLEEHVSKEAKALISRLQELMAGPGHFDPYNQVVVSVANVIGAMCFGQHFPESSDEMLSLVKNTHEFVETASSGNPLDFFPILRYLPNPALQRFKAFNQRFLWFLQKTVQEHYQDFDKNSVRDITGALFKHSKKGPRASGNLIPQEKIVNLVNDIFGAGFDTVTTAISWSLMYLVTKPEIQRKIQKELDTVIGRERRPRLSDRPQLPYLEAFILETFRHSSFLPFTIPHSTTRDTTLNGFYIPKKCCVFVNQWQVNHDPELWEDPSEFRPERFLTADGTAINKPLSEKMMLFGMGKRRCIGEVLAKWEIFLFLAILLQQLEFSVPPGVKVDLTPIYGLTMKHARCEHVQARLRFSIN
Description: (§1) At pre-set time-points, blood concentration of JH4 was determined by LC-MS/MS analysis[22],[23]. Other chemicals were also tested using similar protocol. In vitro ADME studies (plasma protein binding, CYP inhibition, microsomal stability, plasma stability, and hERG inhibition) were performed by New Drug Development Center (Daegu, Korea) using standard protocols[24],[25].

CYP2C9 = CYP2C9 (Homo sapiens, UniProt P11712); experiment: CYP inhibition, CYP2C9; parameters: unit not given here
Description: as §1

CYP2C19 = CYP2C19 (Homo sapiens, UniProt P33261); experiment: CYP inhibition, CYP2C19
Description: as §1, with “For PK analysis, 5 mg/kg of JH4 in 10% DMSO, 5% […] solution were intravenously injected and 10 mg/kg of JH4 in 10% NMP and 90% PEG400 solution were orally delivered. At” for “At”

CYP2C19, sequence (P33261 whole entry): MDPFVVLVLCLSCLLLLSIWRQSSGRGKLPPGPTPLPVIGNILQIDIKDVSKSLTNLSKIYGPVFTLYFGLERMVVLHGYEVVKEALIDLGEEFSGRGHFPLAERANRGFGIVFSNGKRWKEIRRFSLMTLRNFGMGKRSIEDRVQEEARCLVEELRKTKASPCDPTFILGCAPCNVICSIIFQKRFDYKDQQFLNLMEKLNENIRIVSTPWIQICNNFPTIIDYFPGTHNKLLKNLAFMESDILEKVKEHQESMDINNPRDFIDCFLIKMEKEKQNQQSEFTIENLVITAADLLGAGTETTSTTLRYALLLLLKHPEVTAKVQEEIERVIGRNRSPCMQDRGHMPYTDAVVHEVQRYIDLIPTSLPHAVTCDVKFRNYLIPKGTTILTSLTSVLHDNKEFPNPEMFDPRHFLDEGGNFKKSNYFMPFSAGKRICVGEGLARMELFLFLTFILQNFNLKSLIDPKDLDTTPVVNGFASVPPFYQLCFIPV
CYP2C9, sequence (P11712 whole entry): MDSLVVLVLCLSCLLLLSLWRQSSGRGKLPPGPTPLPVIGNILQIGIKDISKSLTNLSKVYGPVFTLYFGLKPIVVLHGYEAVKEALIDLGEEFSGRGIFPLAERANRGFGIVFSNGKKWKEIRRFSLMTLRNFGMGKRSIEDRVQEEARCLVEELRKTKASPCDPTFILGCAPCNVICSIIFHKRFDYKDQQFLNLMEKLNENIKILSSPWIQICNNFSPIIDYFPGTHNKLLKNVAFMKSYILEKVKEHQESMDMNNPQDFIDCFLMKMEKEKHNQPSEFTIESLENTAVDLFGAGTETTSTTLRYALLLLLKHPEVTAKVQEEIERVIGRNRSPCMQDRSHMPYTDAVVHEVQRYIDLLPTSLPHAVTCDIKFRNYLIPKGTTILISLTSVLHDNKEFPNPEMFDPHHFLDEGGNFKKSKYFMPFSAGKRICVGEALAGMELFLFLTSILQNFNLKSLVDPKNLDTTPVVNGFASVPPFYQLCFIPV

CC(=O)N1CCN(c2ccc(OCC3COC(Cn4ccnc4)(c4ccc(Cl)cc4Cl)O3)cc2)CC1 (stereo not drawn) [Ketoconazole, reference compound]
CYP inhibition (CYP1A2): 99.1
CYP inhibition (CYP2C9): 100
CYP inhibition (CYP2C19): 99.5 and > 100
